The test system of the test is amidohydrolase (enzyme of this invention). In words: Experiment C: acyl transfer from acyl-CoA to 6-APA. The format is biochemical, Streptomyces fulvoviridis A933. Particulars: acetyl-CoA or glutaryl-CoA; 37° C., 3 hours. The procedure: 0.2 M Potassium phosphate buffer, pH 7.4 (10 μl), 10 μl of 6-aminopenicillanic acid (6-APA) (500 μg/ml), 20 μl of acyl-CoA (5 μmoles/ml) and 10 μl of the enzyme preparation from Example 1 were mixed and incubated at 37° C. for 3 hours. The products were analyzed by HVPE in the same way as in Example 2, employing acetic acid buffer, pH 4.5 Acetyl-CoA and glutaryl-CoA were used as acyl-CoA.
The controls were the same reaction mixtures minus enzyme solution and acyl-CoA respectively.

Consider `CC1(C)S[C@@H]2[C@H](N)C(=O)N2[C@H]1C(=O)O` [6-APA, 6-aminopenicillanic acid], for which the “Acyl transfer from acyl-CoA to the amino group” value was “converted to the corresponding acyl-6-APA”.

These data come from US4438201A, “Amidohydrolase having ability to depantothenylate an antibiotic” (Sanraku-Ocean Co., Ltd., priority 1981, dated 1984).
